Key:
[1] = test system: Phakopsora pachyrhizi (F129L); assay: Protective control of soybean rust on soybeans (PHAKPA P2); assay type: in vivo; conditions: soybean rust F129L; for % PHAKPA (F129L) Disease level P2 at 4 ppm: protective P2, 4 ppm; for % PHAKPA (F129L) Disease level P2 at 16 ppm: protective P2, 16 ppm
[2] = test system: Phakopsora pachyrhizi (F129L); assay: Protective control of soybean rust on soybeans (PHAKPA P6); assay type: in vivo; conditions: soybean rust F129L; for % PHAKPA (F129L) Disease level P6 at 4 ppm: protective P6, 4 ppm; for % PHAKPA (F129L) Disease level P6 at 16 ppm: protective P6, 16 ppm

SMILES: CO/N=C(/C(=O)OC)c1cccc(C)c1CO/N=C(\C)c1cccc(F)c1C(F)(F)F [compound 330]
- % PHAKPA (F129L) Disease level P2 at 4 ppm [1]: 83%
- % PHAKPA (F129L) Disease level P2 at 16 ppm [1]: 24%
- % PHAKPA (F129L) Disease level P6 at 4 ppm [2]: 93%
- % PHAKPA (F129L) Disease level P6 at 16 ppm [2]: 17%

SMILES: CO/N=C(/C(=O)OC)c1cccc(C)c1CO/N=C(\C)c1ccc(Oc2ccc(Cl)cc2)cc1C(F)(F)F [compound 335]
- % PHAKPA (F129L) Disease level P2 at 4 ppm [1]: 77%
- % PHAKPA (F129L) Disease level P2 at 16 ppm [1]: 53%
- % PHAKPA (F129L) Disease level P6 at 4 ppm [2]: 80%
- % PHAKPA (F129L) Disease level P6 at 16 ppm [2]: 25%

SMILES: CNC(=O)/C(=N/OC)c1cccc(C)c1CO/N=C(\C)c1ccc(Oc2ccc(Cl)cc2)cc1C(F)(F)F [compound 336]
- % PHAKPA (F129L) Disease level P2 at 4 ppm [1]: 63%
- % PHAKPA (F129L) Disease level P2 at 16 ppm [1]: 20%
- % PHAKPA (F129L) Disease level P6 at 4 ppm [2]: 50%
- % PHAKPA (F129L) Disease level P6 at 16 ppm [2]: 17%

SMILES: CNC(=O)/C(=N/OC)c1cccc(C)c1CO/N=C(\C)c1ccc(OC)cc1OC(F)(F)F [compound 337]
- % PHAKPA (F129L) Disease level P2 at 4 ppm [1]: 9%
- % PHAKPA (F129L) Disease level P2 at 16 ppm [1]: 0%
- % PHAKPA (F129L) Disease level P6 at 4 ppm [2]: 13%
- % PHAKPA (F129L) Disease level P6 at 16 ppm [2]: 1%

SMILES: CNC(=O)/C(=N/OC)c1cccc(C)c1CO/N=C(\C)c1ccc(C)cc1OC(F)(F)F [compound 340]
- % PHAKPA (F129L) Disease level P2 at 4 ppm [1]: 23%
- % PHAKPA (F129L) Disease level P2 at 16 ppm [1]: 4%
- % PHAKPA (F129L) Disease level P6 at 4 ppm [2]: 42%
- % PHAKPA (F129L) Disease level P6 at 16 ppm [2]: 7%

SMILES: CNC(=O)/C(=N/OC)c1cccc(C)c1CO/N=C(\C)c1c(F)cc(F)cc1OC(F)(F)F [compound 344]
- % PHAKPA (F129L) Disease level P2 at 4 ppm [1]: 6%
- % PHAKPA (F129L) Disease level P2 at 16 ppm [1]: 0%
- % PHAKPA (F129L) Disease level P6 at 4 ppm [2]: 16%
- % PHAKPA (F129L) Disease level P6 at 16 ppm [2]: 0%

SMILES: CNC(=O)/C(=N/OC)c1cccc(C)c1CO/N=C(\C)c1c(F)cccc1C(F)(F)F [compound 345]
- % PHAKPA (F129L) Disease level P2 at 4 ppm [1]: 22%
- % PHAKPA (F129L) Disease level P2 at 16 ppm [1]: 1%
- % PHAKPA (F129L) Disease level P6 at 4 ppm [2]: 32%
- % PHAKPA (F129L) Disease level P6 at 16 ppm [2]: 1%

SMILES: CNC(=O)/C(=N/OC)c1cccc(C)c1CO/N=C(\C)c1c(F)ccc(F)c1OC(F)(F)F [compound 346]
- % PHAKPA (F129L) Disease level P2 at 4 ppm [1]: 4%
- % PHAKPA (F129L) Disease level P2 at 16 ppm [1]: 0%
- % PHAKPA (F129L) Disease level P6 at 4 ppm [2]: 5%
- % PHAKPA (F129L) Disease level P6 at 16 ppm [2]: 0%

SMILES: CNC(=O)/C(=N/OC)c1cccc(C)c1CO/N=C(\C)c1ccc(OC(F)(F)F)cc1OC(F)(F)F [compound 349]
- % PHAKPA (F129L) Disease level P2 at 4 ppm [1]: 97%
- % PHAKPA (F129L) Disease level P2 at 16 ppm [1]: 50%
- % PHAKPA (F129L) Disease level P6 at 4 ppm [2]: 97%
- % PHAKPA (F129L) Disease level P6 at 16 ppm [2]: 35%

SMILES: CNC(=O)/C(=N/OC)c1cccc(C)c1CO/N=C(\C)c1cccc(F)c1OC(F)(F)F [compound 354]
- % PHAKPA (F129L) Disease level P2 at 4 ppm [1]: 17%
- % PHAKPA (F129L) Disease level P2 at 16 ppm [1]: 2%
- % PHAKPA (F129L) Disease level P6 at 4 ppm [2]: 21%
- % PHAKPA (F129L) Disease level P6 at 16 ppm [2]: 4%

SMILES: CNC(=O)/C(=N/OC)c1cccc(C)c1CO/N=C(\C)c1c(F)cc(Br)cc1OC(F)(F)F [compound 355]
- % PHAKPA (F129L) Disease level P2 at 4 ppm [1]: 34%
- % PHAKPA (F129L) Disease level P2 at 16 ppm [1]: 7%
- % PHAKPA (F129L) Disease level P6 at 4 ppm [2]: 48%
- % PHAKPA (F129L) Disease level P6 at 16 ppm [2]: 4%

SMILES: CNC(=O)/C(=N/OC)c1cccc(C)c1CO/N=C(\C)c1c(F)cc(F)cc1C(F)(F)F [compound 357]
- % PHAKPA (F129L) Disease level P2 at 4 ppm [1]: 13%
- % PHAKPA (F129L) Disease level P2 at 16 ppm [1]: 1%
- % PHAKPA (F129L) Disease level P6 at 4 ppm [2]: 18%
- % PHAKPA (F129L) Disease level P6 at 16 ppm [2]: 0%

SMILES: CNC(=O)/C(=N/OC)c1cccc(C)c1CO/N=C(\C)c1c(F)cc(Br)cc1C(F)(F)F [compound 358]
- % PHAKPA (F129L) Disease level P2 at 4 ppm [1]: 77%
- % PHAKPA (F129L) Disease level P2 at 16 ppm [1]: 17%
- % PHAKPA (F129L) Disease level P6 at 4 ppm [2]: 83%
- % PHAKPA (F129L) Disease level P6 at 16 ppm [2]: 18%

SMILES: CNC(=O)/C(=N/OC)c1cccc(C)c1CO/N=C(\C)c1c(F)ccc(F)c1C(F)(F)F [compound 359]
- % PHAKPA (F129L) Disease level P2 at 4 ppm [1]: 100%
- % PHAKPA (F129L) Disease level P2 at 16 ppm [1]: 37%
- % PHAKPA (F129L) Disease level P6 at 4 ppm [2]: 100%
- % PHAKPA (F129L) Disease level P6 at 16 ppm [2]: 43%

Reference: patent US20230172204A1 (BASF SE, priority 2020, published 2023)
